# Assay results as given in patent US8563730B2, “Pyrazole and fused pyrazole glucokinase activators” (Takeda San Diego, Inc., priority 2008, dated 2013).
# Like-named read-outs stand apart in the source and are kept apart here.
# Target: T1, GK (glucokinase, residues 12-465) (Homo sapiens, UniProt P35557)
# T1 construct: I.D. No. 1 corresponds to residues 12-465 of glucokinase; made in house; host or cells: DH10b-T1r E. coli
# T1 sequence (P35557 with tags, fused parts or gaps isoform P35557-2): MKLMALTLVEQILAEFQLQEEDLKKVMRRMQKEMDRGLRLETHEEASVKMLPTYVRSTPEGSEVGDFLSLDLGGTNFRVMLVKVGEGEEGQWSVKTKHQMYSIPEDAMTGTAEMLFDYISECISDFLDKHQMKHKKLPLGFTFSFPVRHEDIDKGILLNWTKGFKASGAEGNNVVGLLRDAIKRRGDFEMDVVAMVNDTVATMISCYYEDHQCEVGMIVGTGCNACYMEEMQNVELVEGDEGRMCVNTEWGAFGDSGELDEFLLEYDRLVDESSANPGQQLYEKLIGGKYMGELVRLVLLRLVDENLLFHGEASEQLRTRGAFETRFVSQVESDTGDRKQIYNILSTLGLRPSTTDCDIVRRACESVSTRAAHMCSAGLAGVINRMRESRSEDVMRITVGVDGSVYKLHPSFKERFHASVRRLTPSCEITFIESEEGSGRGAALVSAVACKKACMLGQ
# Test: enzymatic glucokinase activity assay (ATP consumption, KinaseGlo luminescence)
# Format: biochemical
# Settings: 5 μM ATP, 5 mM Glucose, reported as bins; for EC50: Kact = concentration that displays 50% of the maximal increase in GK activity, 60 min, room temperature, read-out: pKact
# Excerpt: The activity of compounds as glucokinase activators may be assayed in vitro, in vivo or in a cell line. Provided below is an enzymatic glucokinase activity assay.
# Purified glucokinase may be obtained as follows. […] SEQ.
# The expression of recombinant glucokinase protein may be carried out by transformation and growth of DH10b-T1r E. coli cells incorporating the (pFLAG-CTC) plasmid in LB media. Protein expression can be induced in this system by the addition of IPTG to the culture medium.
# Recombinant protein may be isolated from cellular extracts by passage over Sepharose Q Fast Flow resin (Pharmacia). This partially purified GK extract may then be further purified by a second passage over Poros HQ10 (Applied Biosystems). The purity of GK may be determined on denaturing SDS-PAGE gel. Purified GK may then be concentrated to a final concentration of 20.0 mg/ml. After flash freezing in liquid nitrogen, the proteins can be stored at −78° C. in a buffer containing 25 mM TRIS-HCl pH 7.6, 50 mM NaCl, and 0.5 mM TCEP.
# The activation properties of compounds for GK may be determined using a black 384-well-plate format under the following reaction conditions: 25 mM Hepes pH 7.2, 25 mM NaCl, 10 mM MgCl2, 0.01% Brij35, 1 mM DTT, 5 μM ATP, 5 mM Glucose 2% DMSO. The amount of ATP consumed may be determined quantitatively by addition of equal volume of luciferase reagent (luciferase+beetle luciferin—KinaseGlo Luminescent Kinase Assay kit from Promega). The luminescence intensity may be measured by using the Analyst HT from LJL Biosystems.
# The reaction mixture may then be incubated at room temperature for 60 min, and quenched and developed by addition of 10 μL of luciferase reagent. Luminescence intensities of the resulting reaction mixtures may be measured after a 10 min incubation at room temperature. The luminescence intensity may be measured by using the Analyst HT from LJL Biosystems.
# pKact and % ACTmax values may be calculated by non-linear curve fitting of the compound concentrations and luminescence intensities to a standard inhibition/activation equation.
# [1] = calculated maximal gain in GK enzyme activity at a saturating concentration of the compound, read-out: % ACTmax
# [2] = read-out: % ACTmax, calculated maximal gain in GK enzyme activity at a saturating concentration of the compound
Structure (SMILES),EC50,Emax [1],Emax [2]
"CS(=O)(=O)n1ccc(NC(=O)C(CC2CCOCC2)n2ncc3c(S(=O)(=O)C4CC4)cccc32)n1 (stereo not drawn) [Compound 146, 2-(4-(cyclopropylsulfonyl)-1H-indazol-1-yl)-N-(1-(methylsulfonyl)-1H-pyrazol-3-yl)-3-(tetrahydro-2H-pyran-4-yl)propanamide]",3.98 to 12.6 µM,≤ 90%,
"O=C(NC1CC1)c1nn(C(CC2CCOCC2)C(=O)Nc2ncc(Cl)s2)cc1Cl (stereo not drawn) [Compound 8, 4-chloro-1-(1-(5-chlorothiazol-2-ylamino)-1-oxo-3-(tetrahydro-2H-pyran-4-yl)propan-2-yl)-N-cyclopropyl-1H-pyrazole-3-carboxamide]",3.98 to 12.6 µM,,≤ 90%
"O=C(Nc1ncc(F)s1)C(CC1CCOCC1)n1ncc2c(S(=O)(=O)C3CC3)cncc21 (stereo not drawn) [Compound 13, 2-(4-(cyclopropylsulfonyl)-1H-pyrazolo[3,4-c]pyridin-1-yl)-N-(5-fluorothiazol-2-yl)-3-(tetrahydro-2H-pyran-4-yl)propanamide]",≤ 0.316 µM,,106 to 110%
"N#Cc1cnc(NC(=O)C(CC2CCOCC2)n2ncc3c(S(=O)(=O)C4CC4)cccc32)nc1 (stereo not drawn) [Compound 126, N-(5-cyanopyrimidin-2-yl)-2-(4-(cyclopropylsulfonyl)-1H-indazol-1-yl)-3-(tetrahydro-2H-pyran-4-yl)propanamide]",≥ 15.8 µM,≤ 90%,
"N#Cc1cc(S(=O)(=O)C2CC2)c2cnn([C@H](CC3CCOCC3)C(=O)Nc3ncc(F)s3)c2c1 [Compound 132, (R)-2-(6-cyano-4-(cyclopropylsulfonyl)-1H-indazol-1-yl)-N-(5-fluorothiazol-2-yl)-3-(tetrahydro-2H-pyran-4-yl)propanamide]",1.58 to 3.16 µM,90 to 100%,
"O=C(Nc1cnccn1)C(CC1CCOCC1)n1cc2c(S(=O)(=O)C3CC3)cc(Cl)cc2n1 (stereo not drawn) [Compound 168, 2-(6-chloro-4-(cyclopropylsulfonyl)-2H-indazol-2-yl)-N-(pyrazin-2-yl)-3-(tetrahydro-2H-pyran-4-yl)propanamide]",≥ 15.8 µM,≤ 90%,
"COc1ccc2c(cnn2[C@H](CC2CCOCC2)C(=O)Nc2ncc(F)s2)c1S(=O)(=O)C1CC1 [Compound 81, (R)-2-(4-(cyclopropylsulfonyl)-5-methoxy-1H-indazol-1-yl)-N-(5-fluorothiazol-2-yl)-3-(tetrahydro-2H-pyran-4-yl)propanamide]",3.98 to 12.6 µM,101 to 105%,
Cn1ccc(NC(=O)[C@H](CC2CCOCC2)n2ncc3c(S(=O)(=O)C4CC4)cccc32)n1 [Compound 119],0.398 to 1.26 µM,,90 to 100%

# More lines, main results first:
EC50,Emax [1],Structure (SMILES),Emax [2]
≥ 15.8 µM,≤ 90%,"O=C1CCC(CC(C(=O)Nc2ncc(F)s2)n2cc(S(=O)(=O)C3CC3)cn2)C1 (stereo not drawn) [Compound 50, 2-(4-(cyclopropylsulfonyl)-1H-pyrazol-1-yl)-N-(5-fluorothiazol-2-yl)-3-(3-oxocyclopentyl)propanamide]",
0.398 to 1.26 µM,≥ 111%,"O=C(Nc1ncc(F)s1)[C@H](CC1CCOCC1)n1cc(S(=O)(=O)C2CCCC2)cn1 [Compound 44, (S)-2-(4-(cyclopentylsulfonyl)-1H-pyrazol-1-yl)-N-(5-fluorothiazol-2-yl)-3-(tetrahydro-2H-pyran-4-yl)propanamide]",
3.98 to 12.6 µM,≤ 90%,"O=C1CC[C@@H](C[C@@H](C(=O)Nc2ncc(F)s2)n2cc(S(=O)(=O)C3CC3)cn2)C1 [Compound 55, (S)-2-(4-(cyclopropylsulfonyl)-1H-pyrazol-1-yl)-N-(5-fluorothiazol-2-yl)-3-((S)-3-oxocyclopentyl)propanamide]",
3.98 to 12.6 µM,≤ 90%,"O=C(O)c1cnc(NC(=O)C(CC2CCCC2)n2cc(S(=O)(=O)C3CC3)cn2)s1 (stereo not drawn) [Compound 7, 2-(3-cyclopentyl-2-(4-(cyclopropylsulfonyl)-1H-pyrazol-1-yl)propanamido)thiazole-5-carboxylic Acid]",
